Legend:
U2OS cells [1] = assay: EdU labeling (DNA synthesis); format: cell-based; conditions: absence of IR
Protocol: U2OS cells were seeded on sterilized slides and treated with 10 or 30 μM of 757 for 6 h, or 2 mM of hydroxyurea (HU) for 3 h (DMSO was used as control vehicle). Last 40 min of treatment, 10 μM of the thymidine analogue 5-ethynyl-2′-deoxyuridine (EdU) (Sigma Aldrich, catalog no. 1T511285) was added; cells were washed with PBS and then fixed with paraformaldehyde 4% and sucrose 2%. For the detection of incorporated EdU, the Click IT reaction was performed in accordance with the supplier’s recommendations (Life Technologies/ThermoFisher Scientific). Images were acquired with a Zeiss LSM 780 microscope using a 40× oil immersion lens and processed in ImageJ and CellProfiler (version 2.2.0).

U2OS cells [2] = assay: Clonogenic survival, U2OS; format: cell-based; conditions: U2OS pre-treated prior to IR, colonies 10 days post treatments
Protocol: (§1) U2OS cells were transfected with indicated siRNAs and 24 h later exposed to IR (2 Gy) or left untreated and allowed to recover for 4 h. One-hundred U2OS cells were then seeded into 6-well plates and after 10 days colonies were fixed and stained with 4% methylene blue (Sigma Aldrich) in methanol. BJ TERT (500 cells), BJ RAS (200 cells), or U2OS (200 cells) were seeded into 6-well plates 24 h prior to treatment with inhibitors as indicated or vehicle for 24 h and then subjected to IR (2 Gy). The inhibitors were washed out 72 h later and colonies were fixed 4 days (BJ RAS) or 7 days (BJ TERT) later with 4% methylene blue in methanol.

BJ RAS cells = assay: Clonogenic survival, BJ RAS; format: cell-based; conditions: with and without IR (2 Gy)
Protocol: as §1

BJ TERT cells = assay: Clonogenic survival, BJ TERT; format: cell-based; conditions: with and without IR (2 Gy), concentrations active in BJ RAS
Protocol: as §1

PFKFB3 = PFKFB3 (Homo sapiens, UniProt Q16875); assay: Cellular thermal shift assay (CETSA) in U2OS cells; format: cell-based; conditions: 10 µM
Protocol: U2OS cells in exponential growth rate were treated with indicated inhibitors at a concentration of 10 μM or DMSO for 6, 24, or 72 h and then harvested using trypsin, upon detachment trypsinization was inhibited by addition of cell media and cells spun down at 200 × g for 10 min at 4 °C. The pellet was resuspended in TBS (50 mM Tris–HCl (pH 7.5) and 150 mM NaCl) supplemented with protease inhibitors (Roche), cells were lysed by a freeze–thaw circle three times at −80 °C for 3 min and then 37 °C for 3 min. Debris was removed by centrifugation at 16,000 × g for 20 min at 4 °C, cell lysates were aliquoted and heated to indicated temperatures for 3 min. Insoluble proteins were then removed by centrifugation at 16,000 × g at 4 °C for 20 min, supernatant was transferred to new tubes and protein concentration was determined using BCA assay (Pierce). Western blot was performed according to standard procedures.

ERBB2 = molecular target: T1, ERBB2 (Homo sapiens, UniProt P04626); assay: KINOMEscan; format: binding; conditions: 2000 nM; read-out: Percent Control
T1 construct: purchased DiscoverX (Eurofins) KINOMEscan / scanEDGE, inferred from the naming style
T1 sequence (P04626 23-1255): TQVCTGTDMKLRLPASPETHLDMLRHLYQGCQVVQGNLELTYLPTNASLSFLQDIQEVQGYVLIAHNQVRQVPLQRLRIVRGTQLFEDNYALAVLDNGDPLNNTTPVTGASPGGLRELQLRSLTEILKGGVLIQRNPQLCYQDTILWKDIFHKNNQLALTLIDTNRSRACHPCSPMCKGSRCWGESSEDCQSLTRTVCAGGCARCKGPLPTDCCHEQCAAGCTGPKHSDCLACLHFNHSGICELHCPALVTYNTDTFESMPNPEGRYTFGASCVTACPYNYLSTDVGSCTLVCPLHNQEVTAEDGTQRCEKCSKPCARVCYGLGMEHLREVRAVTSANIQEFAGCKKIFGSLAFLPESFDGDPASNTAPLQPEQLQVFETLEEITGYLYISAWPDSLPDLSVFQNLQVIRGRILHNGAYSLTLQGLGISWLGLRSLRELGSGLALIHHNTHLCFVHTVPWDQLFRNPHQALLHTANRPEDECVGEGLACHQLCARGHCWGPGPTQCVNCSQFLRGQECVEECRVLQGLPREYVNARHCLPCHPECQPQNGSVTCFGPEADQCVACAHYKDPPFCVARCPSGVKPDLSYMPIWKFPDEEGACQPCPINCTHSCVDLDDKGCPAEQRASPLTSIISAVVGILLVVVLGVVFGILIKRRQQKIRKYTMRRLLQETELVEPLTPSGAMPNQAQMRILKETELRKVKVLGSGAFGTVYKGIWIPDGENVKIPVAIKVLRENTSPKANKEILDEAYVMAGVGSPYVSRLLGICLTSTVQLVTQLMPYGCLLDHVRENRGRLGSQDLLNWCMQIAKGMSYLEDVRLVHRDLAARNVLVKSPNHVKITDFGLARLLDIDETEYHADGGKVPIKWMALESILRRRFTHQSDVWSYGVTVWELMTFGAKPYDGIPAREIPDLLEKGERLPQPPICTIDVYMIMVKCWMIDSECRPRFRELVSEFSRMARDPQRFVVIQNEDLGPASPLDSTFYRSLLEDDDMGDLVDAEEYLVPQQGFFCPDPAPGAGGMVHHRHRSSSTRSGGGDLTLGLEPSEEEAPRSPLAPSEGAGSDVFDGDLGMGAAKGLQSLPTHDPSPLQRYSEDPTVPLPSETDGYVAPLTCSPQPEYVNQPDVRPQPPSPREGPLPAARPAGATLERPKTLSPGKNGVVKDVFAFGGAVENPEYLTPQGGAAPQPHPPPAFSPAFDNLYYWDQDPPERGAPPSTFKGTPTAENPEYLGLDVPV

ACVR1B = molecular target: T2, ACVR1B (Homo sapiens, UniProt P36896); assay: KINOMEscan; format: binding; conditions: 2000 nM; read-out: Percent Control
T2 construct: purchased DiscoverX (Eurofins) KINOMEscan / scanEDGE, inferred from the naming style

BMPR2 = molecular target: T3, BMPR2 (Homo sapiens, UniProt Q13873); assay: KINOMEscan; format: binding; conditions: 2000 nM; read-out: Percent Control
T3 construct: purchased DiscoverX (Eurofins) KINOMEscan / scanEDGE, inferred from the naming style
T3 sequence (Q13873 27-1038): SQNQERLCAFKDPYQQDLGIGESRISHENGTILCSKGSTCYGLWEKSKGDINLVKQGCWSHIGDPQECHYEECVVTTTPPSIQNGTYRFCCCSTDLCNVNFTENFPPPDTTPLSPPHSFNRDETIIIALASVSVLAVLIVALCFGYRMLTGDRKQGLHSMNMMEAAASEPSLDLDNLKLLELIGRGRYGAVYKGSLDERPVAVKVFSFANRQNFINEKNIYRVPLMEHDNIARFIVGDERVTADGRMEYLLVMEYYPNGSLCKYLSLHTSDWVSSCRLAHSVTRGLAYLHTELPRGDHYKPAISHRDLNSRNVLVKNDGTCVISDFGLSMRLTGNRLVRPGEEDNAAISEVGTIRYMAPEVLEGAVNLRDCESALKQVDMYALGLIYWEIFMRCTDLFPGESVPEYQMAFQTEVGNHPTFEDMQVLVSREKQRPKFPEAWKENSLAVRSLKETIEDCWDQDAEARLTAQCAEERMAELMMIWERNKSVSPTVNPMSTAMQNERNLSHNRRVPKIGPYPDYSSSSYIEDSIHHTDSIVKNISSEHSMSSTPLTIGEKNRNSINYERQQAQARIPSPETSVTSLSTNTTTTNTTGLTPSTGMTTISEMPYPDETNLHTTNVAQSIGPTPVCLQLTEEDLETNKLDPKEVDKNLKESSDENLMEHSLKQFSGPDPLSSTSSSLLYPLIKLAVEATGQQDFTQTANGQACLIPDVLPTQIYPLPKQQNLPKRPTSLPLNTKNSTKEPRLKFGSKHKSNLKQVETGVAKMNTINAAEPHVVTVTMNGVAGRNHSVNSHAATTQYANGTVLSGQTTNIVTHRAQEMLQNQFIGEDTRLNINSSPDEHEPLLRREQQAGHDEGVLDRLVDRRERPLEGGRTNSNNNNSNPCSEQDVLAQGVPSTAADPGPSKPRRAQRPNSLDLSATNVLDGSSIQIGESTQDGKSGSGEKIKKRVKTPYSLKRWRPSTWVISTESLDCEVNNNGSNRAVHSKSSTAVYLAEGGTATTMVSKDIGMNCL

PFKFB4 = PFKFB4 (Homo sapiens, UniProt Q16877); assay: ADP-Glo kinase activity assay, PFKFB4; format: biochemical
Sequence of PFKFB4 (Q16877 whole entry, species assumed): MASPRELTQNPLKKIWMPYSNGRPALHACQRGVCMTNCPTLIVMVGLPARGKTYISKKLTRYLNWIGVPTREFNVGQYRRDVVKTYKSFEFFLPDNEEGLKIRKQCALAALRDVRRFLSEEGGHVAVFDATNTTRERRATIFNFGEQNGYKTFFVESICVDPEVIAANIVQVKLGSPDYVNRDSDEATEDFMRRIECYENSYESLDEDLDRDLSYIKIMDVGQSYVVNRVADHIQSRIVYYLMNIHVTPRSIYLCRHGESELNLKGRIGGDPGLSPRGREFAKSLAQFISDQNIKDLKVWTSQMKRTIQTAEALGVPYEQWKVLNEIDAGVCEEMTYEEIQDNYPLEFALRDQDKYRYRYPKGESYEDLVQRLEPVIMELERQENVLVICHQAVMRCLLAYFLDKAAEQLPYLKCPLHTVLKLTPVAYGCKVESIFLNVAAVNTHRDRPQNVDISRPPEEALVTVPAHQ
Protocol: The kinase activity of the bi-functional enzyme was quantified based on the production of ADP and F-2,6-P2 from ATP by ADP-GloTM Kinase Assay (Promega). The assay was performed in two steps; first, after the kinase reaction, an equal volume of ADP-GloTM Reagent was added to terminate the kinase reaction and deplete the remaining ATP. Second, the Kinase Detection Reagent was added to simultaneously convert ADP to ATP and allow the newly synthesized ATP to be measured using a luciferase/luciferin reaction. The light generated was measured using a luminescence counter (1450 MicroBeta TriLux). The assay was performed in white 384-well plates (OptiPlate, 6007299, PerkinElmer) by consecutive additions of a test compound solution (0.1 µL, serial diluted in DMSO from compound DMSO stock solution and dispensed by acoustic dispensing from UV-star 384-well plate 7360153, VWR), enzyme solution (5 µL) and substrate (fructose-6-phosphate (F6P) and adenosine-5′-triphosphate (ATP)) containing solution (5 µL). […] Four reference dose–response curves, one of them being the QC compound, were included and serial diluted as the test compounds. […] The inhibitory potency or IC50 values of test compounds on the kinase activity of the enzymes were calculated using a four-parameter model (model 205) in XLfit (IDBS ActivityBase XE Runner).

ADCK3 = molecular target: T4, ADCK3 (Homo sapiens, UniProt Q8NI60); assay: KINOMEscan; format: binding; conditions: 2000 nM; read-out: Percent Control
T4 construct: purchased DiscoverX (Eurofins) KINOMEscan / scanEDGE, inferred from the naming style

CSNK1G2 = molecular target: T5, CSNK1G2 (Homo sapiens, UniProt P78368); assay: KINOMEscan; format: binding; conditions: 2000 nM; read-out: Percent Control
T5 construct: purchased DiscoverX (Eurofins) KINOMEscan / scanEDGE, inferred from the naming style

CDK11 = molecular target: T6, CDK11 (Homo sapiens, UniProt Q9BWU1); assay: KINOMEscan; format: binding; conditions: 2000 nM; read-out: Percent Control
T6 construct: purchased DiscoverX (Eurofins) KINOMEscan / scanEDGE, inferred from the naming style

BRAF(V600E) = molecular target: T7, BRAF(V600E) (Homo sapiens, UniProt P15056, V600E); assay: KINOMEscan; format: binding; conditions: 2000 nM; read-out: Percent Control
T7 construct: purchased DiscoverX (Eurofins) KINOMEscan / scanEDGE, inferred from the naming style

CSF1R = molecular target: T8, CSF1R (Homo sapiens, UniProt P07333); assay: KINOMEscan; format: binding; conditions: 2000 nM; read-out: Percent Control
T8 construct: purchased DiscoverX (Eurofins) KINOMEscan / scanEDGE, inferred from the naming style
T8 sequence (P07333 20-972): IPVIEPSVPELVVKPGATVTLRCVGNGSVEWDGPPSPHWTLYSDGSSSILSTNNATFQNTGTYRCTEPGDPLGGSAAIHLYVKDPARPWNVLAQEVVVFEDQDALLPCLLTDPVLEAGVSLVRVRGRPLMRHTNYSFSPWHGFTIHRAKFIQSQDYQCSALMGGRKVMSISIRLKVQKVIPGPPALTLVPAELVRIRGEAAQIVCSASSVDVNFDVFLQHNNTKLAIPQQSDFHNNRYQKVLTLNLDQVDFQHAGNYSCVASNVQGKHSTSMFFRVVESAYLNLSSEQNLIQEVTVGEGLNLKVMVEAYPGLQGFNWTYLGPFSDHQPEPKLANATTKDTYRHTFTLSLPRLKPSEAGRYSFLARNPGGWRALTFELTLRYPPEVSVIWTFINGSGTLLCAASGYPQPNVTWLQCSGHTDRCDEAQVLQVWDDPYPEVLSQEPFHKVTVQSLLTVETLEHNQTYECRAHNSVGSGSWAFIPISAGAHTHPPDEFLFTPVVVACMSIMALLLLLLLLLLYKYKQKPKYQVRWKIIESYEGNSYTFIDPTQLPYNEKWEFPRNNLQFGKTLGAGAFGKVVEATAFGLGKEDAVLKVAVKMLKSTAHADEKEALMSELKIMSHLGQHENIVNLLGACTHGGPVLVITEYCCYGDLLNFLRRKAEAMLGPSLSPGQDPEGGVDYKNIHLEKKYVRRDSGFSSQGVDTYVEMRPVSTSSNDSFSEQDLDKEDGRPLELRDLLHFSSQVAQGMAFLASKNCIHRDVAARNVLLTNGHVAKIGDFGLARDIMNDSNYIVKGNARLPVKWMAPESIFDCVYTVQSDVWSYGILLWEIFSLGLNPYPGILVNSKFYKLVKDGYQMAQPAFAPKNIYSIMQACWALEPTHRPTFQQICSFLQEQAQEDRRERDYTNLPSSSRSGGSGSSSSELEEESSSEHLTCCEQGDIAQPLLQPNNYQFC

IGF1R = molecular target: T9, IGF1R (Homo sapiens, UniProt P08069); assay: KINOMEscan; format: binding; conditions: 2000 nM; read-out: Percent Control
T9 construct: purchased DiscoverX (Eurofins) KINOMEscan / scanEDGE, inferred from the naming style
T9 sequence (P08069 31-1367): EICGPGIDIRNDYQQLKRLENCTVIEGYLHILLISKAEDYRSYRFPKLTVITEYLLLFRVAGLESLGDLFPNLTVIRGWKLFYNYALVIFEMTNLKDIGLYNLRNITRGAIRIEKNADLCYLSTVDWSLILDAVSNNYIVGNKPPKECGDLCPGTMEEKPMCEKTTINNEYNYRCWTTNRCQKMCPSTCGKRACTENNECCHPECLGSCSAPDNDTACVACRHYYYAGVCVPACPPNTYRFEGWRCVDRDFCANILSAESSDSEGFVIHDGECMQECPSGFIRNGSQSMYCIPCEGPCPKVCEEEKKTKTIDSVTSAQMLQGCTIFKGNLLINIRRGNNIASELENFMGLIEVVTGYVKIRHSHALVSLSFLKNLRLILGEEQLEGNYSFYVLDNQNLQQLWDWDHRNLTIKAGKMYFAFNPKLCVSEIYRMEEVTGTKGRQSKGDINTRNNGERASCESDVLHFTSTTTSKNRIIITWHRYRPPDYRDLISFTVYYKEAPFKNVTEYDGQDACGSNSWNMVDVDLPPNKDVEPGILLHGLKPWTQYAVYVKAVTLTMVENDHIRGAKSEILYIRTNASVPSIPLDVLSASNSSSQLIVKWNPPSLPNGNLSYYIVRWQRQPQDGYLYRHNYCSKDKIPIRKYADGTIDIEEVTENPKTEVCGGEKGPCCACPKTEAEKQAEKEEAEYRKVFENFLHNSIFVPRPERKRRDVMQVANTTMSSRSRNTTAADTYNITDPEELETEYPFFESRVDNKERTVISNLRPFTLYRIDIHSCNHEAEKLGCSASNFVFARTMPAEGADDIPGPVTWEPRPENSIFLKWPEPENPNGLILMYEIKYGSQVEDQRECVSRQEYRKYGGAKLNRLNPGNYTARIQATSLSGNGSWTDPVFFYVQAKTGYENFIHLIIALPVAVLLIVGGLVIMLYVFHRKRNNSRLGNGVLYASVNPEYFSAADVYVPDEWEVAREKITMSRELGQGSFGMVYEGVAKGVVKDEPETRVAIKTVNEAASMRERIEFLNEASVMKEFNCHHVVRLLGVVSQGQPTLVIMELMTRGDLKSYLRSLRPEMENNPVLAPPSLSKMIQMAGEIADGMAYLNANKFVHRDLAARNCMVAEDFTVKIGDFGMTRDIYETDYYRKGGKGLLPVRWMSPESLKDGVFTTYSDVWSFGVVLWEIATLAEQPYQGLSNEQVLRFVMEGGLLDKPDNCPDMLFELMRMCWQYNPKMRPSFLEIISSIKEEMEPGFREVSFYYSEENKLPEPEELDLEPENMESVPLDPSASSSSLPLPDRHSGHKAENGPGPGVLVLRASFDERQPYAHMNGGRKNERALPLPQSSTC

FGFR2 = molecular target: T10, FGFR2 (Homo sapiens, UniProt P21802); assay: KINOMEscan; format: binding; conditions: 2000 nM; read-out: Percent Control
T10 construct: purchased DiscoverX (Eurofins) KINOMEscan / scanEDGE, inferred from the naming style

DYRK1B = molecular target: T11, DYRK1B (Homo sapiens, UniProt Q9Y463); assay: KINOMEscan; format: binding; conditions: 2000 nM; read-out: Percent Control
T11 construct: purchased DiscoverX (Eurofins) KINOMEscan / scanEDGE, inferred from the naming style

Row | Compound | EdU intensity per cell in EdU-positive population (in words) (U2OS cells [1]) | clonogenic survival in combination with IR (in words) (U2OS cells [2]) | clonogenic survival of BJ RAS (in words) (BJ RAS cells) | clonogenic survival of BJ TERT (in words) (BJ TERT cells) | intracellular target engagement of PFKFB3 (CETSA) (PFKFB3) | remaining binding at 2 µM (ERBB2) | remaining binding at 2 µM (ACVR1B) | remaining binding at 2 µM (BMPR2) | IC50 (PFKFB4; ADP-GLO assay) | selectivity window PFKFB3 versus PFKFB4 (PFKFB4; ratio of IC50 values) | remaining binding at 2 µM (ADCK3) | remaining binding at 2 µM (CSNK1G2) | remaining binding at 2 µM (CDK11) | remaining binding at 2 µM (BRAF(V600E)) | remaining binding at 2 µM (CSF1R) | remaining binding at 2 µM (IGF1R) | remaining binding at 2 µM (FGFR2) | remaining binding at 2 µM (DYRK1B)
1 | O=C(OCCO)c1ccc(NS(=O)(=O)c2cccc(-c3cc(F)ccc3O)c2)cc1O [KAN0438757, 2-Hydroxyethyl-4-{[(5′-fluoro-2′-hydroxybiphenyl-3-yl)sulfonyl]amino}-2-hydroxybenzoate] | decreased EdU intensity per cell | dose-dependent radiosensitization | decreased clonogenic survival | only marginally affected | demonstrated intracellular target engagement | – | – | – | – | – | – | – | – | – | – | – | – | –
2 | O=C(O)c1ccc(NS(=O)(=O)c2cccc(-c3cc(F)ccc3O)c2)cc1O [KAN0438241, 4-{[(5′-Fluoro-2′-hydroxybiphenyl-3-yl)sulfonyl]amino}-2-hydroxybenzoic acid] | – | – | – | – | – | 92% | 100% | 88% | 3.6 µM | about 20 fold | 100% | 97% | 96% | 97% | 90% | 100% | 88% | 86%

Source: article PMC6155239, “Targeting PFKFB3 radiosensitizes cancer cells and suppresses homologous recombination” (Nature Communications, 2018)
